Tests used:
Conditions in all cases: Compound concentration 1.0 uM
[1] = molecular target: Mas-related G-protein coupled receptor member X4 (Homo sapiens) (UniProt Q96LA9); experiment: RLU of MRGPRX4 at 1.0 µM in the […] PRESTO-Tango GPCRome screen
[2] = molecular target: Trace amine-associated receptor 9 (Homo sapiens) (UniProt Q96RI9); experiment: RLU of TAAR9 at 1.0 µM in the […] PRESTO-Tango GPCRome screen
[3] = molecular target: Melanin-concentrating hormone receptor 1 (Homo sapiens) (UniProt Q99705); experiment: RLU of MCHR1 at 1.0 µM in the […] PRESTO-Tango GPCRome screen
[4] = molecular target: Urotensin-2 receptor (Homo sapiens) (UniProt Q9UKP6); experiment: RLU of UTS2R at 1.0 µM in the […] PRESTO-Tango GPCRome screen
[5] = molecular target: C-C chemokine receptor-like 2 (Homo sapiens) (UniProt O00421); experiment: RLU of CCRL2 at 1.0 µM in the […] PRESTO-Tango GPCRome screen
[6] = molecular target: Neuromedin-U receptor 2 (Homo sapiens) (UniProt Q9GZQ4); experiment: RLU of NMUR2 at 1.0 µM in the […] PRESTO-Tango GPCRome screen
[7] = molecular target: C-X-C chemokine receptor type 3 (Homo sapiens) (UniProt P49682); experiment: RLU of CXCR3 at 1.0 µM in the […] PRESTO-Tango GPCRome screen
[8] = molecular target: Gastric inhibitory polypeptide receptor (Homo sapiens) (UniProt P48546); experiment: RLU of GIPR at 1.0 µM in the […] PRESTO-Tango GPCRome screen
[9] = molecular target: Probable G-protein coupled receptor 85 (Homo sapiens) (UniProt P60893); experiment: RLU of GPR85 at 1.0 µM in the […] PRESTO-Tango GPCRome screen
[10] = molecular target: 5-hydroxytryptamine receptor 4 (Homo sapiens) (UniProt Q13639); experiment: RLU of HTR4 at 1.0 µM in the […] PRESTO-Tango GPCRome screen
[11] = molecular target: G-protein coupled receptor 157 (Homo sapiens) (UniProt Q5UAW9); experiment: RLU of GPR157 at 1.0 µM in the […] PRESTO-Tango GPCRome screen
[12] = molecular target: Cannabinoid receptor 1 (Homo sapiens) (UniProt P21554); experiment: RLU of CNR1 at 1.0 µM in the […] PRESTO-Tango GPCRome screen
[13] = molecular target: Vasopressin V2 receptor (Homo sapiens) (UniProt P30518); experiment: RLU of AVPR2 at 1.0 µM in the […] PRESTO-Tango GPCRome screen
[14] = molecular target: G-protein coupled receptor 12 (Homo sapiens) (UniProt P47775); experiment: RLU of GPR12 at 1.0 µM in the […] PRESTO-Tango GPCRome screen
[15] = molecular target: Melatonin receptor type 1B (Homo sapiens) (UniProt P49286); experiment: RLU of MTNR1B at 1.0 µM in the […] PRESTO-Tango GPCRome screen
[16] = molecular target: Thyrotropin receptor (Homo sapiens) (UniProt P16473); experiment: RLU of TSHR at 1.0 µM in the […] PRESTO-Tango GPCRome screen
[17] = molecular target: Probable G-protein coupled receptor 82 (Homo sapiens) (UniProt Q96P67); experiment: RLU of GPR82 at 1.0 µM in the […] PRESTO-Tango GPCRome screen
[18] = molecular target: G-protein coupled receptor family C group 5 member D (Homo sapiens) (UniProt Q9NZD1); experiment: RLU of GPRC5D at 1.0 µM in the […] PRESTO-Tango GPCRome screen
[19] = molecular target: Probable G-protein coupled receptor 149 (Homo sapiens) (UniProt Q86SP6); experiment: RLU of GPR149 at 1.0 µM in the […] PRESTO-Tango GPCRome screen
[20] = molecular target: C-C chemokine receptor type 8 (Homo sapiens) (UniProt P51685); experiment: RLU of CCR8 at 1.0 µM in the […] PRESTO-Tango GPCRome screen
[21] = molecular target: Mas-related G-protein coupled receptor member F (Homo sapiens) (UniProt Q96AM1); experiment: RLU of MRGPRF at 1.0 µM in the […] PRESTO-Tango GPCRome screen
[22] = molecular target: B1 bradykinin receptor (Homo sapiens) (UniProt P46663); experiment: RLU of BDKRB1 at 1.0 µM in the […] PRESTO-Tango GPCRome screen
[23] = molecular target: Secretin receptor (Homo sapiens) (UniProt P47872); experiment: RLU of SCTR at 1.0 µM in the […] PRESTO-Tango GPCRome screen
[24] = molecular target: Metabotropic glutamate receptor 4 (Homo sapiens) (UniProt Q14833); experiment: RLU of GRM4 at 1.0 µM in the Aequorin PRESTO-Tango GPCRome screen
[25] = molecular target: 5-hydroxytryptamine receptor 2C (Homo sapiens) (UniProt P28335); experiment: RLU of HTR2C at 1.0 µM in the […] PRESTO-Tango GPCRome screen
[26] = molecular target: Histamine H2 receptor (Homo sapiens) (UniProt P25021); experiment: RLU of HRH2 at 1.0 µM in the Aequorin PRESTO-Tango GPCRome screen
[27] = molecular target: 5-hydroxytryptamine receptor 6 (Homo sapiens) (UniProt P50406); experiment: RLU of HTR6 at 1.0 µM in the […] PRESTO-Tango GPCRome screen
[28] = molecular target: Proteinase-activated receptor 3 (Homo sapiens) (UniProt O00254); experiment: RLU of F2RL2 at 1.0 µM in the […] PRESTO-Tango GPCRome screen
[29] = molecular target: Nociceptin receptor (Homo sapiens) (UniProt P41146); experiment: RLU of OPRL1 at 1.0 µM in the […] PRESTO-Tango GPCRome screen
[30] = molecular target: Follicle-stimulating hormone receptor (Homo sapiens) (UniProt P23945); experiment: RLU of FSHR at 1.0 µM in the […] PRESTO-Tango GPCRome screen
[31] = molecular target: Adhesion G protein-coupled receptor L4 (Homo sapiens) (UniProt Q9HBW9); experiment: RLU of ELTD1 at 1.0 µM in the […] PRESTO-Tango GPCRome screen
[32] = molecular target: KiSS-1 receptor (Homo sapiens) (UniProt Q969F8); experiment: RLU of KISSPEPTIN at 1.0 µM in the […] PRESTO-Tango GPCRome screen
[33] = molecular target: Apelin receptor (Homo sapiens) (UniProt P35414); experiment: RLU of APJ at 1.0 µM in the […] PRESTO-Tango GPCRome screen
[34] = molecular target: G-protein coupled receptor 146 (Homo sapiens) (UniProt Q96CH1); experiment: RLU of GPR146 at 1.0 µM in the […] PRESTO-Tango GPCRome screen
[35] = molecular target: Free fatty acid receptor 4 (Homo sapiens) (UniProt Q5NUL3); experiment: RLU of GPR120 at 1.0 µM in the […] PRESTO-Tango GPCRome screen
[36] = molecular target: Bombesin receptor subtype-3 (Homo sapiens) (UniProt P32247); experiment: RLU of BB3 at 1.0 µM in the […] PRESTO-Tango GPCRome screen

Melatonin receptor type 1B (Homo sapiens), sequence (P49286 whole entry): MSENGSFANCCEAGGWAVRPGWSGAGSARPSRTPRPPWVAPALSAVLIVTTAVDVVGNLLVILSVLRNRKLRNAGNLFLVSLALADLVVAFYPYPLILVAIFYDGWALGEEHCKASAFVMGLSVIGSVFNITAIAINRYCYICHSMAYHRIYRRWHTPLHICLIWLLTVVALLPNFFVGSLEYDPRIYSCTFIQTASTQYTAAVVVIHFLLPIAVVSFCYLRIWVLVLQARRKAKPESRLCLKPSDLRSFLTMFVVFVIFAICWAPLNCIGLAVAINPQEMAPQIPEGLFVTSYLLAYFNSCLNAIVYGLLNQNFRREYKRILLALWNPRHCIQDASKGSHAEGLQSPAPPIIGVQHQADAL
Histamine H2 receptor (Homo sapiens), sequence (P25021 whole entry): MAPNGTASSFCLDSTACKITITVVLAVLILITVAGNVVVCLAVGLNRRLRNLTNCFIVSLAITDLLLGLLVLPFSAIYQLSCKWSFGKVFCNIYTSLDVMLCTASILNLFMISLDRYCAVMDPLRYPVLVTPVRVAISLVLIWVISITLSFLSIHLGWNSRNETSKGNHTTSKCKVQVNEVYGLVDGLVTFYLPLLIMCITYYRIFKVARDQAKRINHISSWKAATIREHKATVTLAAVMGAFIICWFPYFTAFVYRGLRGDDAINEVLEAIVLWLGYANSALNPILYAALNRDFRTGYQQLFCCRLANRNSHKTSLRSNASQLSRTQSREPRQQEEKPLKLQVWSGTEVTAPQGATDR
Cannabinoid receptor 1 (Homo sapiens), sequence (P21554 whole entry): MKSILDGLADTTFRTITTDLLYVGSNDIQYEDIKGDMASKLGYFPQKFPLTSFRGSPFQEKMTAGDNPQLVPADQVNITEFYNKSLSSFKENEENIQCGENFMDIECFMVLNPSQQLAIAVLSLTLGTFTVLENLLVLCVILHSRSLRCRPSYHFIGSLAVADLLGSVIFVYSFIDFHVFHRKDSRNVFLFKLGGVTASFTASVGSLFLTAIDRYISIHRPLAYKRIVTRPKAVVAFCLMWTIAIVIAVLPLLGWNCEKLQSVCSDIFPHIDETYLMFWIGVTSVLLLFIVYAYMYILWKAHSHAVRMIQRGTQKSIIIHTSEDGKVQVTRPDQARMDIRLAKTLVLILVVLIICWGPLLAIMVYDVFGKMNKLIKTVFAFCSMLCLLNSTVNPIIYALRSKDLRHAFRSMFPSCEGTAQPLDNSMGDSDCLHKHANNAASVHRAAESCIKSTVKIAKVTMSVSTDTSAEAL
KiSS-1 receptor (Homo sapiens), sequence (Q969F8 whole entry): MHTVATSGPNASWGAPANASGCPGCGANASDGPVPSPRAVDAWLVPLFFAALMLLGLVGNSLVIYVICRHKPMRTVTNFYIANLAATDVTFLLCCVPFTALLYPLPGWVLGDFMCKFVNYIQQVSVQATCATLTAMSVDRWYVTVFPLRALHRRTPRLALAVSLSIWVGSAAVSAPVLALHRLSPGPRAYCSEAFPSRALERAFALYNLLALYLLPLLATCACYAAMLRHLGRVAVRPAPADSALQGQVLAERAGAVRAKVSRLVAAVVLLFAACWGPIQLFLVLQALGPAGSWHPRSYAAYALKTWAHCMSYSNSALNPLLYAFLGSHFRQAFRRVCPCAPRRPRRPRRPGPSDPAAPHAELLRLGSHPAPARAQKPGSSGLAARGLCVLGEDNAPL
Urotensin-2 receptor (Homo sapiens), sequence (Q9UKP6 whole entry): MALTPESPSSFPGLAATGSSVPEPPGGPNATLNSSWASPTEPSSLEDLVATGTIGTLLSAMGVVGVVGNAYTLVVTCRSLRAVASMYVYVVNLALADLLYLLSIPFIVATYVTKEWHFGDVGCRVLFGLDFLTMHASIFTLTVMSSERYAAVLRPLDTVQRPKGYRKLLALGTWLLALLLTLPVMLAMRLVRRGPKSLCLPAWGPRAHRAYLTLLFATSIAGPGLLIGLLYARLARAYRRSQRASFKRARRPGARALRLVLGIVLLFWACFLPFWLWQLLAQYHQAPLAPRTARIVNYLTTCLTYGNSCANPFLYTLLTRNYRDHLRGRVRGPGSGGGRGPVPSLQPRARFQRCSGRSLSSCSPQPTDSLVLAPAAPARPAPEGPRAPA
G-protein coupled receptor family C group 5 member D (Homo sapiens), sequence (Q9NZD1 whole entry): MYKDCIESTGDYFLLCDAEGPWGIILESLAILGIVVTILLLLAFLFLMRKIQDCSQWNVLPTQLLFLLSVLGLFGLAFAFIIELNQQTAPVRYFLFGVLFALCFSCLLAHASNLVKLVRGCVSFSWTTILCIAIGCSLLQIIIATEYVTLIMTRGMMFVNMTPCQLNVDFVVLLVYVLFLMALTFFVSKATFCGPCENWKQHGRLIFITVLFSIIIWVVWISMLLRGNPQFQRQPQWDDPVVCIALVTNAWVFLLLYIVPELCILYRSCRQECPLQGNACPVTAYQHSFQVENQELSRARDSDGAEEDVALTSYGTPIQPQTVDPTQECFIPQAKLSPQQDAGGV
Mas-related G-protein coupled receptor member F (Homo sapiens), sequence (Q96AM1 whole entry): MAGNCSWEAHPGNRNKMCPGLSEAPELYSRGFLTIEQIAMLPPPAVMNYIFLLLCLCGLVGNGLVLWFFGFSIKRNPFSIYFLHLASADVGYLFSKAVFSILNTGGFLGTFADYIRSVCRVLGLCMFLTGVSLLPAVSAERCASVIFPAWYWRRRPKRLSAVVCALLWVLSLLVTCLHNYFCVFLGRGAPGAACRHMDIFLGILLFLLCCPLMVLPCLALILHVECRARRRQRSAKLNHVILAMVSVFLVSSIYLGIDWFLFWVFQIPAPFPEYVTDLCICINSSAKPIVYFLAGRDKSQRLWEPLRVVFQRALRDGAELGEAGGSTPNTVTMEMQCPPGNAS
Secretin receptor (Homo sapiens), sequence (P47872 whole entry): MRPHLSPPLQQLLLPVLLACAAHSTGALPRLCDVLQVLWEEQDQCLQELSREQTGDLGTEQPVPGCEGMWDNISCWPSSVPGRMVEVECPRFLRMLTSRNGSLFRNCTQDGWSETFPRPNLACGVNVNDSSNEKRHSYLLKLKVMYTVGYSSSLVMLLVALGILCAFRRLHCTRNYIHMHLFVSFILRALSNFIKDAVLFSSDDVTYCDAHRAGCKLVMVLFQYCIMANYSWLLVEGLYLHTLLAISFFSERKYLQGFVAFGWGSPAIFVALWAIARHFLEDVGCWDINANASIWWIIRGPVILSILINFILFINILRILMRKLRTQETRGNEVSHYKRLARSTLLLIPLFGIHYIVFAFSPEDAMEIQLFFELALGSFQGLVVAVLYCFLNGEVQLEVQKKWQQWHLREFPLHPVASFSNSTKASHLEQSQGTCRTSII
Apelin receptor (Homo sapiens), sequence (P35414 whole entry): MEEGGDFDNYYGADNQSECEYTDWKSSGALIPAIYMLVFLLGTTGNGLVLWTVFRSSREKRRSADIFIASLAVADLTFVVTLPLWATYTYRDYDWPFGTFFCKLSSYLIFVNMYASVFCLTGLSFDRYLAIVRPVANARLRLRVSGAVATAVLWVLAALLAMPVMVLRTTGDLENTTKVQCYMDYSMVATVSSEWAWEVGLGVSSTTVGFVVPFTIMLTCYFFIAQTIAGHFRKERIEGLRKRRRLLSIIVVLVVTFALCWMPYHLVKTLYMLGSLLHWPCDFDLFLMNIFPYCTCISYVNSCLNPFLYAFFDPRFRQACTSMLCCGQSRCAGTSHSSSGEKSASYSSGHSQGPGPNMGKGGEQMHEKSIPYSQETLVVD
Melanin-concentrating hormone receptor 1 (Homo sapiens), sequence (Q99705 whole entry): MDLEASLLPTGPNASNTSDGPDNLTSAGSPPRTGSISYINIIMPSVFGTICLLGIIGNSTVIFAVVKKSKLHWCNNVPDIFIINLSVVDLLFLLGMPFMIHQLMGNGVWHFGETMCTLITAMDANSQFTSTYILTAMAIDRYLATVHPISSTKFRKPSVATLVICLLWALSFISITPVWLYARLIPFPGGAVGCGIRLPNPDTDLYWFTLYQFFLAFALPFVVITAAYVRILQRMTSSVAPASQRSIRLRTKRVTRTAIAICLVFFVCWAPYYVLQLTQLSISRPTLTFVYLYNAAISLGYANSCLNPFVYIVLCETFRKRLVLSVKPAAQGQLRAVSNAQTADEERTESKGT
Proteinase-activated receptor 3 (Homo sapiens), sequence (O00254 whole entry): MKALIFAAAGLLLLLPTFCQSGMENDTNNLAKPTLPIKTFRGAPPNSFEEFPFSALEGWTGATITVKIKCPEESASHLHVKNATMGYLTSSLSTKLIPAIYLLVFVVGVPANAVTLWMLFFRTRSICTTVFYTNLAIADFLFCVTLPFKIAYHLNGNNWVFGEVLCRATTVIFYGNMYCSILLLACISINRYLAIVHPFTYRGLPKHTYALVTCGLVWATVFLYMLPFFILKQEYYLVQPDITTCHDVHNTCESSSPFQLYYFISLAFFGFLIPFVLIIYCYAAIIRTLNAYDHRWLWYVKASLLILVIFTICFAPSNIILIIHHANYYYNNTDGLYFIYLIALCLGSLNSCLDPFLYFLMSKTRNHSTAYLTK
Vasopressin V2 receptor (Homo sapiens), sequence (P30518 whole entry): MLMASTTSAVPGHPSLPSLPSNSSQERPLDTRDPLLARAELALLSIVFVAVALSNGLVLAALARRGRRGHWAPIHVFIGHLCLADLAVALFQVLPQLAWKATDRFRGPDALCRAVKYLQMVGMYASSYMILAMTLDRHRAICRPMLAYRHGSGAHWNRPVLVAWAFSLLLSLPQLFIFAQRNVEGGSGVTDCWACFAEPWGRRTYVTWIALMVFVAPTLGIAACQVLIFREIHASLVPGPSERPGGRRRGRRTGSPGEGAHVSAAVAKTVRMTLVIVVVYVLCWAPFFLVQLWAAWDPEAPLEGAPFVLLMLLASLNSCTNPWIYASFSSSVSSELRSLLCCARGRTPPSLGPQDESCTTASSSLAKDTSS
Mas-related G-protein coupled receptor member X4 (Homo sapiens), sequence (Q96LA9 whole entry): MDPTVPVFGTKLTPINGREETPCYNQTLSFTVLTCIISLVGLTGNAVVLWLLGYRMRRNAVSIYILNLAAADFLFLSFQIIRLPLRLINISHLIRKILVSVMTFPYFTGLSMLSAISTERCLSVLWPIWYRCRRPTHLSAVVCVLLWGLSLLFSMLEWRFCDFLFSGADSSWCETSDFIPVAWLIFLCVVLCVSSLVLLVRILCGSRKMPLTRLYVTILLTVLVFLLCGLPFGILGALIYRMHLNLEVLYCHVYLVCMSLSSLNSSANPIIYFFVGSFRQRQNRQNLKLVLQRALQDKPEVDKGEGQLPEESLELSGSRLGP

- RLU [1]: 3310
- RLU [2]: -547
- RLU [3]: 5930
- RLU [4]: -160
- RLU [5]: -1900
- RLU [6]: 710
- RLU [7]: -568
- RLU [8]: -1500
- RLU [9]: -4210
- RLU [10]: -2330
- RLU [11]: -4180
- RLU [12]: -5260
- RLU [13]: 2870
- RLU [14]: 109
- RLU [15]: 4170
- RLU [16]: -406
- RLU [17]: -8050
- RLU [18]: 1.74
- RLU [19]: -2140
- RLU [20]: -3270
- RLU [21]: -194
- RLU [22]: -3310
- RLU [23]: -71.4
- RLU [24]: -82.8
- RLU [25]: 1050
- RLU [26]: 84.8
- RLU [27]: 5340
- RLU [28]: 463
- RLU [29]: 2760
- RLU [30]: -865
- RLU [31]: 1170
- RLU [32]: 2040
- RLU [33]: 5300
- RLU [34]: -1510
- RLU [35]: 1030
- RLU [36]: -2040
SMILES: CCCCC(=O)N1CC2(C1)CN(c1ccccc1-c1nnn[nH]1)C2

— ChEMBL document CHEMBL5723582, “Data for DCP probe T-10430” (2024)
